Measured values as given in ChEMBL document CHEMBL5136972, “Targeting SARS-CoV-2 Proteases and Polymerase for COVID-19 Treatment: State of the Art and Future Opportunities” (J Med Chem, 2022).

What was measured:
[1] = system: Feline infectious peritonitis virus; test: Antiviral activity against FIPV infected in African green monkey Vero cells assessed as inhibition of plaque formation by viral plaque assay; type: functional, organism-based; conditions: Alphacoronavirus 1, Vero
[2] = Inhibition of MERS CoV 3CL protease using MCA-AVLQSGFR-Lys(Dnp)-Lys-NH2 as substrate by fluorescence based analysis; set-up: species or system Middle East respiratory syndrome-related coronavirus
[3] = system: Human coronavirus 229E; test: Antiviral activity against HCoV-229E infected in African green monkey Vero cells assessed as inhibition of plaque formation by viral plaque assay; type: functional, organism-based
[4] = system: Murine hepatitis virus; test: Antiviral activity against MHV infected in African green monkey Vero cells assessed as inhibition of plaque formation by viral plaque assay; type: functional, organism-based; conditions: Murine coronavirus
[5] = system: Murine hepatitis virus; test: Antiviral activity against MHV-A59 infected in African green monkey Vero cells assessed as inhibition of plaque formation by viral plaque assay; type: functional, organism-based; conditions: Murine coronavirus
[6] = Cytotoxicity against African green monkey Vero cells; type: toxicity, cell-based; conditions: chlorocebus sabaeus
[7] = Cytotoxicity against African green monkey Vero E6 cells incubated for 3 hrs by CCK-8 assay; type: toxicity, cell-based, Vero C1008; conditions: chlorocebus sabaeus
[8] = Cytotoxicity against African green monkey Vero E6 cells by CCK-8 assay; type: toxicity, cell-based, Vero C1008; conditions: chlorocebus sabaeus
[9] = target: T1, Replicase polyprotein 1ab (Severe acute respiratory syndrome coronavirus 2, UniProt P0DTD1); test: Inhibition of N-terminal recombinant SARS CoV 2 3CL protease expressed in Escherichia coli BL21-DE3 cells using MCA-AVLQSGFR-Lys(Dnp)-Lys-NH2 as substrate by FRET assay
[10] = Clearance in Sprague-Dawley rat at 10 mg/kg, iv measured after up to 24 hrs by LC-MS/MS analysis; type: ADME, organism-based; conditions: in vivo
[11] = Bioavailability in CD-1 mouse at 5 mg/kg, iv measured after up to 24 hrs by LC-MS/MS analysis; type: ADME, organism-based; conditions: in vivo
[12] = Clearance in Beagle dog at 5 mg/kg, iv measured after up to 24 hrs by LC-MS/MS analysis; type: ADME, organism-based, Canis lupus familiaris; conditions: in vivo
[13] = Clearance in CD-1 mouse at 5 mg/kg, iv measured after up to 24 hrs by LC-MS/MS analysis; type: ADME, organism-based; conditions: in vivo
[14] = Cmax in CD-1 mouse at 5 mg/kg, iv measured after up to 24 hrs by LC-MS/MS analysis; type: ADME, organism-based; set-up: dose 5 mg/kg, time < 24 hrs, route iv; conditions: in vivo
[15] = AUClast in Beagle dog at 5 mg/kg, iv measured after up to 24 hrs by LC-MS/MS analysis; type: ADME, organism-based, Canis lupus familiaris; set-up: time < 24 hrs, dose 5 mg/kg, route iv; conditions: in vivo
[16] = Half life in CD-1 mouse at 5 mg/kg, iv measured after up to 24 hrs by LC-MS/MS analysis; type: ADME, organism-based; conditions: in vivo
[17] = Half life in Beagle dog at 5 mg/kg, iv measured after up to 24 hrs by LC-MS/MS analysis; type: ADME, organism-based, Canis lupus familiaris; conditions: in vivo
[18] = system: SARS-CoV-2; test: Antiviral activity against SARS CoV-2 infected in African green monkey Vero cells assessed as inhibition of plaque formation by viral plaque assay; type: functional, organism-based; conditions: Severe acute respiratory syndrome coronavirus 2, Vero
[19] = Half life in Sprague-Dawley rat at 10 mg/kg, iv measured after up to 24 hrs by LC-MS/MS analysis; type: ADME, organism-based; conditions: in vivo
[20] = AUClast in Sprague-Dawley rat at 10 mg/kg, iv measured after up to 24 hrs by LC-MS/MS analysis; type: ADME, organism-based; set-up: time < 24 hrs, dose 10 mg/kg, route iv; conditions: in vivo
[21] = target: T1, Replicase polyprotein 1ab; test: Inhibition of recombinant SARS CoV-2 PL protease incubated for 60 mins by fluorescence based analysis
[22] = target: T1, Replicase polyprotein 1ab; test: Inhibition of SARS CoV-2 PL protease
[23] = system: Middle East respiratory syndrome-related coronavirus; test: Antiviral activity against […] CoV infected in HAE cells measured after 48 hrs by CellTiter-Glo assay; type: functional, organism-based
[24] = system: SARS-CoV-2; test: Antiviral activity against SARS CoV-2 infected in human Huh-7 cells measured up to 72 hrs by plaque assay; type: functional, organism-based; conditions: Severe acute respiratory syndrome coronavirus 2, Huh-7, 72 h
[25] = system: SARS-CoV-2; test: Antiviral activity against SARS CoV-2 infected in African green monkey Vero E6 cells assessed as inhibition of virus-induced cytopathic effect measured after 72 hrs by Reed-Muench method; type: functional, organism-based; conditions: Severe acute respiratory syndrome coronavirus 2, Vero C1008, 72 h
[26] = in vivo; conditions: C57BL/6J (wild type), mouse, sc, 25 mg/kg
[27] = in vivo; conditions: C57BL/6J (Ces1c knockout), mouse, sc, 25 mg/kg
[28] = system: SARS-CoV; test: Antiviral activity against SARS CoV infected in HAE cells measured after 48 hrs by CellTiter-Glo assay; type: functional, organism-based; conditions: Severe acute respiratory syndrome-related coronavirus

`Cc1cc(C(=O)N[C@@H](C)C(=O)N[C@H](C(=O)N[C@@H](CC(C)C)C(=O)N[C@H](/C=C/C(=O)OCc2ccccc2)C[C@@H]2CCNC2=O)C(C)C)no1` showed an EC50 [1] of 8800 nM, an IC50 [2] of 300 nM and an EC50 [3] of 4000 nM. The EC50 [4] was 3400 nM, the EC50 [5] was 2700 nM and the CC50 [6] was > 133000 nM.

For `O=C(O)[C@H]1O[C@@H](Oc2cc3oc(-c4ccccc4)cc(=O)c3c(O)c2O)[C@H](O)[C@@H](O)[C@@H]1O` [BAICALIN], the CC50 at 3 h [7] was > 200000 nM.

In the case of `O=C[C@H](C[C@@H]1CCNC1=O)NC(=O)[C@H](CC1CC1)NC(=O)c1cc2ccccc2[nH]1`, the CC50 [8] is reported as > 100000 nM, the IC50 [9] is reported as 53 nM and the clearance [10] is reported as 4.01 mL/min/kg. For the same compound, the bioavailability [11] was > 85%, the clearance [12] was 5.8 mL/min/kg and the clearance [13] was 17 mL/min/kg. For the same compound, the Cmax [14] was > 2360 ng/mL, the AUC(0-t) at 24 h [15] was 14900 ng·h/mL and the half-life [16] was 4.4 h. It also gave a half-life [17] of 5.5 h, an EC50 [18] of 520 nM and a half-life [19] of 7.6 h. For the same compound, the AUC(0-t) at 24 h [20] was 41500 ng·h/mL.

In the case of `O=C(Nc1ccccc1O)c1ccccc1[Se][Se]c1ccccc1C(=O)Nc1ccccc1O`, the IC50 [21] is reported as 34000 nM.

In the case of `CC(=O)N[C@@H](CCc1nc2ccccc2s1)C(=O)N[C@@H](CN)C(=O)NCC(=O)NC/C=C/C(=O)O`, the IC50 [22] is reported as 10000 nM.

Work on `CC(=O)N[C@@H](CCc1ccc(O)cc1)C(=O)N[C@@H](CN)C(=O)NCC(=O)NC/C=C/C(=O)O` yielded an IC50 [22] of 10000 nM.

For `CCC(CC)COC(=O)[C@H](C)N[P@](=O)(OC[C@H]1O[C@@](C#N)(c2ccc3c(N)ncnn23)[C@H](O)[C@@H]1O)Oc1ccccc1`, the EC50 [23] was 74 nM, the EC50 [24] was 3 nM and the EC50 [25] was 651 nM. For the same compound, the half-life at 144 h [26] was < 5 min, the half-life at 144 h [27] was 0.417 h and the EC50 [28] was 69 nM.
